Source: patent US8822468B2 (Novartis AG, priority 2008, dated 2014)

target: T1, cMET receptor tyrosine kinase (GST-cMET (969-1390)) (Homo sapiens, UniProt P08581); experiment: EPK cMET profiling assay (LanthaScreen TR-FRET antibody based kinase phosphorylation assay); type: biochemical; details: purified recombinant GST-cMET (969-1390), 2 μM ATP, 50 nM Fluorescein-PolyEAY, 60 minutes at room temperature; read-out: c-Met IC50
T1 construct: made in house
Method: A number of compounds of the present invention were assayed in an antibody based kinase phosphorylation assay as follows.
EPK cMET Profiling Assay:
The EPK kinase assay for cMET receptor tyrosine kinase was developed, using the purified recombinant GST-fusion protein, containing the cytoplasmic domain of the enzyme. GST-cMET (969-1390) was purified by affinity chromatography.
The kinase assay is based on the LanthaScreen™ technology. LanthaScreen™ is the detection of Time-Resolved Fluorescence Resonance Energy Transfer (TR-FRET) using lanthanide chelates to measure interactions between various binding partners. In a TR-FRET kinase assay, a long-lifetime lanthanide donor species is conjugated to an antibody that specifically binds to a phosphorylated product of a kinase reaction that is labeled with a suitable acceptor fluorophore. This antibody-mediated interaction brings the lanthanide donor and the acceptor into proximity such that resonance energy transfer can take place, resulting in a detectible increase in the FRET signal.
The kinase reactions were performed in 384 well microtiter plates in a total reaction volume of 9.05 μL. The assay plates were prepared with 0.05 μL per well of test compound in the appropriate test concentration, as described under “preparation of compound dilutions”. The reactions were started by combining 4.5 μL of ATP solution with 4.5 μL of enzyme-substrate mix (consisting of kinase and substrate). The final concentrations in the kinase reactions were 35 mM Tris/HCl, 1 mM DTT, 0.025% Tween20, 10 μM sodium orthovanadate, 0.25% BSA, 0.6% DMSO, 10 mM MgCl2, 3 mM MnCl2, 2 μM ATP, 50 nM Fluorescein-PolyEAY, and 0.3 nM enzyme.
The reactions were incubated for 60 minutes at room temperature and stopped by adding 4.5 μL of stop buffer (50 mM EDTA, 0.04% NP40, 20 mM Tris/HCl).
Subsequently 4.5 μL of detection mix (50 mM Tris/HCl, 2 mM DTT, 0.05% Tween20, 20 μM sodium orthovanadate, 1% BSA, 1.72 μg/ml Tb-PY20 antibody) were added to the stopped reactions. After 30 minutes incubation at room temperature, the plates were measured in a BMG Pherastar fluorescence reader. The effect of compound on the enzymatic activity was in all assays obtained from the linear progress curves and determined from one reading (end point measurement).
Test compounds were dissolved in DMSO (10 mM) and transferred into 1.4 mL flat bottom or V-shaped Matrix tubes carrying a unique 2D matrix. The stock solutions were stored at −20° C. if not used immediately. For the test procedure the vials were defrosted and identified by a scanner whereby a working sheet was generated that guided the subsequent working steps.
Compound dilutions were made in 96 well plates. This format enabled the assay of maximally 40 individual test compounds at 8 concentrations (single points) including 4 reference compounds. The dilution protocol included the production of “pre-dilution plates”, “master plates” and “assay plates”.
Pre-dilution plates: 96 polypropylene well plates were used as pre-dilution plates. A total of 4 pre-dilution plates were prepared including 10 test compounds each on the plate positions A1-A10, one standard compound at A11 and one DMSO control at A12. All dilution steps were done on a HamiltonSTAR robot.
Master plates: 100 μL of individual compound dilutions including standard compound and controls of the 4 “pre-dilution plates” were transferred into a 384 “master plate” including the following concentrations 1,820, […], 182, 54.6, 18.2, 5.46, 1.82 and 0.546 μM, respectively in 90% of DMSO.
Assay plates: Identical “assay plates” were then prepared by pipetting 50 nL each of compound dilutions of the “master plates” into 384-well “assay plates” by means of a HummingBird 384-channel dispenser. These plates were used directly for the assay which was performed in a total volume of 9.05 μL. This led to a final compound concentration of 10, 3.0, 1.0, 0.3, 0.1, 0.03, 0.01 and 0.003 μM and a final DMSO concentration of 0.5% in the assay.

T1 sequence (P08581 969-1390): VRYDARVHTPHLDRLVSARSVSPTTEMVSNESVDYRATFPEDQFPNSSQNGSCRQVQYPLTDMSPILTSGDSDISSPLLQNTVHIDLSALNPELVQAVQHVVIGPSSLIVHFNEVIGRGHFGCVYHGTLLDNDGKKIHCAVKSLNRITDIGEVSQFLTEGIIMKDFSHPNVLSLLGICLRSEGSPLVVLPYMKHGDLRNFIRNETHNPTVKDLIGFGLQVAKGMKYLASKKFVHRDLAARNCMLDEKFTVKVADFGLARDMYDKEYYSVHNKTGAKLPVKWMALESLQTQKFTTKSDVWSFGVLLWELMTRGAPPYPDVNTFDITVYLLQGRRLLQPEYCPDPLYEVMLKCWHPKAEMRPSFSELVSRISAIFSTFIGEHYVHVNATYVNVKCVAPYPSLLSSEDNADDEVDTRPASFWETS

Going from `Cn1cc(-c2ccc3ncc(C(O)c4ccc5ncccc5c4)n3n2)cn1` (racemic) [Example 1, (rac)-[6-(1-Methyl-1H-pyrazol-4-yl)-imidazo[1,2-b]pyridazin-3-yl]-quinolin-6-yl-methanol] to `CC(c1ccc2ncccc2c1)c1cnc2ccc(-c3cnn(C)c3)nn12` (racemic) [Example 157, (rac)-6-{1-[6-(1-Methyl-1H-pyrazol-4-yl)-imidazo[1,2-b]pyridazin-3-yl]-ethyl}-quinoline], the IC50 falls from 0.14 µM to 0.007 µM (20-fold). The second is the more potent here.

Going from `COc1ccc(C(O)c2cnc3ccc(-c4cnn(C)c4)nn23)cc1` (racemic) [Example 3, (rac)-(4-Methoxy-phenyl)-[6-(1-methyl-1H-pyrazol-4-yl)-imidazo[1,2-b]pyridazin-3-yl]-methanol] to `CC(c1ccc(O)cc1)c1cnc2ccc(-c3cnn(C)c3)nn12` (racemic) [Example 222, (rac)-4-{1-[6-(1-Methyl-1H-pyrazol-4-yl)-imidazo[1,2-b]pyridazin-3-yl]-ethyl}-phenol], the IC50 falls from 3.95 µM to 0.25 µM (16-fold).

Going from `Cn1cc(-c2ccc3ncc(C(O)c4ccc5nccn5c4)n3n2)cn1` (racemic) [Example 9, (rac)-Imidazo[1,2-a]pyridin-6-yl-[6-(1-methyl-1H-pyrazol-4-yl)-imidazo[1,2-b]pyridazin-3-yl]-methanol] to `CC(c1ccc2nccn2c1)c1cnc2ccc(-c3cnn(CCO)c3)nn12` (racemic) [Example 189, (rac)-2-{4-[3-(1-Imidazo[1,2-a]pyridin-6-yl-ethyl)-imidazo[1,2-b]pyridazin-6-yl]-pyrazol-1-yl}-ethanol], the IC50 falls from 0.17 µM to 0.095 µM (1.8-fold). The second is the more potent here.

First: Cn1cc(-c2ccc3ncc(C(O)c4ccc5nccnc5c4)n3n2)cn1 (racemic) [Example 11, (rac)-[6-(1-Methyl-1H-pyrazol-4-yl)-imidazo[1,2-b]pyridazin-3-yl]-quinoxalin-6-yl-methanol]
Second: Cn1cc(-c2ccc3ncc(C(O)c4ccc5ncn(C)c5c4)n3n2)cn1 (racemic) [Example 229, (rac)-(3-Methyl-3H-benzoimidazol-5-yl)-[6-(1-methyl-1H-pyrazol-4-yl)-imidazo[1,2-b]pyridazin-3-yl]-methanol]
The IC50 of the first is 1.8-fold higher: 0.91 µM for the first, 0.52 µM for the second.

Compared with `CC(C)CNc1ccc2ncc(C(O)c3ccc4ncccc4c3)n2n1` (racemic) [Example 77, (rac)-(6-Isobutylamino-imidazo[1,2-b]pyridazin-3-yl)-quinolin-6-yl-methanol], `CC(c1ccc2ncccc2c1)c1cnc2ccc(-c3cnn(CCO)c3)nn12` (racemic) [Example 177, (rac)-2-{4-[3-(1-Quinolin-6-yl-ethyl)-imidazo[1,2-b]pyridazin-6-yl]-pyrazol-1-yl}-ethanol] is 11-fold lower in IC50: 0.225 µM for the first, 0.02 µM for the second.

Going from `CN(C(=O)OC(C)(C)C)C1CCN(c2ccc3ncc(Cc4ccc5ncccc5c4)n3n2)C1` (racemic) [Example 87, Methyl-[1-(3-quinolin-6-ylmethyl-imidazo[1,2-b]pyridazin-6-yl)-pyrrolidin-3-yl]-carbamic acid tert-butyl ester] to `CNC1CCN(c2ccc3ncc(Cc4ccc5ncccc5c4)n3n2)C1` (racemic) [Example 119, (rac)-Methyl-[1-(3-quinolin-6-ylmethyl-imidazo[1,2-b]pyridazin-6-yl)-pyrrolidin-3-yl]-amine], the IC50 falls from 0.37 µM to 0.042 µM (8.8-fold).

Going from `CC(c1ccc2c(c1)CCCN2)c1cnc2ccc(-c3cnn(C)c3)nn12` (racemic) [Example 156, (rac)-6-{1-[6-(1-Methyl-1H-pyrazol-4-yl)-imidazo[1,2-b]pyridazin-3-yl]-ethyl}-1,2,3,4-tetrahydroquinoline] to `CC(c1ccc2ncn(C)c2c1)c1cnc2ccc(-c3cnn(C)c3)nn12` (racemic) [Example 206, (rac)-3-[1-(3-Methyl-3H-benzoimidazol-5-yl)-ethyl]-6-(1-methyl-1H-pyrazol-4-yl)-imidazo[1,2-b]pyridazine], the IC50 falls from 0.19 µM to 0.031 µM (6.1-fold).

Compared with `CC(c1cc2cn[nH]c2cc1F)c1cnc2ccc(-c3cnn(C)c3)nn12` (racemic) [Example 164, (rac)-3-[1-(6-Fluoro-1H-indazol-5-yl)-ethyl]-6-(1-methyl-1H-pyrazol-4-yl)-imidazo[1,2-b]pyridazine], `CC(c1c(F)cc2ncccc2c1F)c1cnc2ccc(-c3cnn(C)c3)nn12` (racemic) [Example 191, (rac)-5,7-Difluoro-6-{1-[6-(1-methyl-1H-pyrazol-4-yl)-imidazo[1,2-b]pyridazin-3-yl]-ethyl}-quinoline] is lower in IC50: 0.054 µM for the first, less than 0.003 µM for the second.

First: Cn1cc(-c2ccc3ncc(C(C)(O)c4cc5cccnc5cc4F)n3n2)cn1 (racemic) [Example 174, (rac)-1-(7-Fluoro-quinolin-6-yl)-1-[6-(1-methyl-1H-pyrazol-4-yl)-imidazo[1,2-b]pyridazin-3-yl]-ethanol]
Second: Cn1cc(-c2ccc3ncc(C(O)c4ccc5ncccc5c4F)n3n2)cn1 (racemic) [Example 247, (rac)-(5-Fluoro-quinolin-6-yl)-[6-(1-methyl-1H-pyrazol-4-yl)-imidazo[1,2-b]pyridazin-3-yl]-methanol]
The IC50 of the first is 1.8-fold higher: 0.12 µM for the first, 0.066 µM for the second.

Going from `CC(c1c(F)cc2ncccc2c1F)c1cnc2ccc(-c3cnn(CCO)c3)nn12` (racemic) [Example 182, (rac)-2-(4-{3-[1-(5,7-Difluoro-quinolin-6-yl)-ethyl]-imidazo[1,2-b]pyridazin-6-yl}-pyrazol-1-yl)ethanol] to `CC(c1ccc2ncccc2c1Cl)c1cnc2ccc(-c3cnn(CCO)c3)nn12` (racemic) [Example 188, (rac)-2-(4-{3-[1-(5-Chloro-quinolin-6-yl)-ethyl]-imidazo[1,2-b]pyridazin-6-yl}-pyrazol-1-yl)ethanol], the IC50 rises from 0.003 µM to 0.0056 µM (1.9-fold).

`CC(c1ccc2ncn(C)c2c1)c1cnc2ccc(-c3cnn(CCO)c3)nn12` (racemic) [Example 185, (rac)-2-(4-{3-[1-(3-Methyl-3H-benzoimidazol-5-yl)-ethyl]-imidazo[1,2-b]pyridazin-6-yl}-pyrazol-1-yl)-ethanol] and `CC(c1ccc2n[nH]cc2c1)c1cnc2ccc(-c3cnn(CCO)c3)nn12` (racemic) [Example 190, (rac)-2-(4-{3-[1-(2H-Indazol-5-yl)-ethyl]-imidazo[1,2-b]pyridazin-6-yl}-pyrazol-1-yl)-ethanol] are the same in IC50: 0.056 µM for the first, 0.056 µM for the second.

Compared with `CC(c1ccc2ncn(CCN3CCCC3)c2c1)c1cnc2ccc(-c3cnn(C)c3)nn12` (racemic) [Example 207, (rac)-6-(1-Methyl-1H-pyrazol-4-yl)-3-{1-[3-(2-pyrrolidin-1-yl-ethyl)-3H-benzoimidazol-5-yl]-ethyl}-imidazo[1,2-b]pyridazine], `CC(c1ccc2ncccc2c1Cl)c1cnc2ccc(-c3cnn(C)c3)nn12` (racemic) [Example 225, (rac)-5-Chloro-6-{1-[6-(1-methyl-1H-pyrazol-4-yl)-imidazo[1,2-b]pyridazin-3-yl]-ethyl}-quinoline] is 12-fold lower in IC50: 0.31 µM for the first, 0.025 µM for the second. The second is the more potent here.

First: CC(c1ccc(O)cc1)c1cnc2ccc(-c3cnn(CCO)c3)nn12 (racemic) [Example 221, (rac)-4-(1-{6-[1-(2-Hydroxy-ethyl)-1H-pyrazol-4-yl]-imidazo[1,2-b]pyridazin-3-yl}-ethyl)-phenol]
Second: CC(c1ccc2ncccc2c1Cl)c1cnc2ccc(-c3cnn(C4CCNCC4)c3)nn12 (racemic) [Example 223, (rac)-5-Chloro-6-{1-[6-(1-piperidin-4-yl-1H-pyrazol-4-yl)-imidazo[1,2-b]pyridazin-3-yl]-ethyl}-quinoline]
The IC50 of the first is 7.3-fold higher: 0.24 µM for the first, 0.033 µM for the second.
